Experimental data: US20240279218A1 (Hoffmann-La Roche Inc., priority 2016, published 2024)
Where two headings read alike, the source gives them in different places.

How the values were obtained:
h-GABA-A α5β3γ2 [1] = biological target: T1, h-GABA-A α5β3γ2 (Homo sapiens (Human), UniProt P18507+P31644); experiment: Two-electrode voltage clamp electrophysiology in Xenopus oocytes expressing GABAA receptors, modulation of GABA EC20 current; assay type: cell-based
Summary of the method: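 Values are % modulation of an EC20 GABA response, derived point by point from the ratio of compound-exposed versus control current traces (extremum taken, 100×(fold−1)). Recordings used oocytes injected with human α5, β3, γ2 mRNA, clamped at −80 mV at room temperature, at least 3 oocytes each.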

h-GABA-A α5β3γ2 [2] = biological target: T1, h-GABA-A α5β3γ2; experiment: [3H]flumazenil competition binding assay, membranes of HEK293 cells expressing human GABAA receptors
Summary of the method: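 Membranes were prepared from HEK293 cells with transient human α5β3γ2 expression and assayed in Krebs-tris, pH 7.5. Bound radioactivity measured on filters by liquid scintillation.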

[3] = % modulation of GABA EC20 = 100*(Fold increase−1), Xenopus oocytes
[4] = Xenopus oocytes, GABA EC20, test compound at approx. 30 fold its Ki
[5] = displacement of [3H]flumazenil 0.5 nM, HEK293 cells expressing human receptors, mean of two determinations, read-out: Ki h-GABA-A α5β3γ2

Structure (SMILES)	Efficacy (GABA) % (h-GABA-A α5β3γ2 [1]; [3]) [%]	Fold increase h-GABA-A α5β3γ2 oocyte (h-GABA-A α5β3γ2 [1]; [4])	Ki (h-GABA-A α5β3γ2 [2]; [5]) [nM]	Efficacy (GABA) % (h-GABA-A α5β3γ2 [1]; reference compounds, % modulation of GABA EC20) [%]	Fold increase h-GABA-A α5β3γ2 oocyte (h-GABA-A α5β3γ2 [1]; reference compounds, GABAA α5β3γ2 overexpressing oocytes, GABA EC20)	Ki (h-GABA-A α5β3γ2 [2]; reference compounds, GABAA receptor α5β3γ2, read-out: Ki α5-human) [nM]
Cc1ccc(-c2noc(C)c2COc2ccc(C(=O)NCC3(C)COC3)nn2)cn1 [Example 49, 6-((5-methyl-3-(6-methylpyridin-3-yl)isoxazol-4-yl)methoxy)-N-((3-methyloxetan-3-yl)methyl)pyridazine-3-carboxamide]	70	1.7	13.6	–	–	–
Cc1ccc(-c2noc(C)c2COc2cnc(C(=O)N[C@H]3CC[C@](C)(O)CC3)cn2)cn1 [Example 105, N-(trans-4-hydroxy-4-methylcyclohexyl)-5-((5-methyl-3-(6-methylpyridin-3-yl)isoxazol-4-yl)methoxy)pyrazine-2-carboxamide]	101	2.01	22.7	–	–	–
Cc1ccc(-c2noc(C)c2COc2ccc(C(=O)N[C@H]3C[C@H](OCC(F)F)C3)nn2)cn1 [Example 170, trans-N-3-((2,2-difluoroethoxy)cyclobutyl)-6-((5-methyl-3-(6-methylpyridin-3-yl)isoxazol-4-yl)methoxy)pyridazine-3-carboxamide]	60	1.6	8.8	–	–	–
Cc1ccc(-c2noc(C)c2COc2cnc(C(=O)NC(C)(C)CO)cn2)cn1 [Example 73, N-(2-hydroxy-1,1-dimethyl-ethyl)-5-((5-methyl-3-(6-methyl-3-pyridyl)isoxazol-4-yl)methoxy)pyrazine-2-carboxamide]	45	1.45	52.8	–	–	–
Cc1ccc(-c2noc(C)c2COc2cnc(C(=O)NC3CCS(=O)(=O)C3)cn2)cn1 (stereo not drawn) [Example 94, N-(1,1-dioxothiolan-3-yl)-5-((5-methyl-3-(6-methylpyridin-3-yl)-1,2-oxazol-4-yl)methoxy)pyrazine-2-carboxamide]	92	1.92	10	–	–	–
Cc1ccc(-c2noc(C)c2COc2ccc(C(N)=O)cn2)cn1 [Example 17, 6-((5-methyl-3-(6-methylpyridin-3-yl)isoxazol-4-yl)methoxy)nicotinamide]	60	1.6	9.8	–	–	–
CCC[C@@H](CO)N1Cc2cc(OCc3c(-c4ccc(C)nc4)noc3C)ncc2C1=O [Example 13, (S)-2-(1-hydroxypentan-2-yl)-6-((5-methyl-3-(6-methylpyridin-3-yl)isoxazol-4-yl)methoxy)-1H-pyrrolo[3,4-c]pyridin-3(2H)-one]	158	2.58	14.4	–	–	–
Cc1ccc(-c2noc(C)c2COc2ccc(C(=O)NC3CCOCC3)cn2)cn1 [Example 1, 6-((5-methyl-3-(6-methyl-3-pyridyl)isoxazol-4-yl)methoxy)-N-tetrahydropyran-4-yl-pyridine-3-carboxamide]	42	1.42	4.8	–	–	–
Cc1ccc(-c2noc(C)c2COc2ccc(C(=O)NC(C)(C)C(F)(F)F)nn2)cn1 [Example 64, 6-((5-methyl-3-(6-methylpyridin-3-yl)isoxazol-4-yl)methoxy)-N-(1,1,1-trifluoro-2-methylpropan-2-yl)pyridazine-3-carboxamide]	86	1.86	17.6	–	–	–
CNC(=O)c1ccc(OCc2c(-c3ccc(C)nc3)noc2C)nn1 [Example 46, N-methyl-6-((5-methyl-3-(6-methylpyridin-3-yl)isoxazol-4-yl)methoxy)pyridazine-3-carboxamide]	63	1.63	3.5	–	–	–
Cc1onc(-c2ccccn2)c1COc1ccc(C(=O)NC2CCOCC2)nn1 [RO-094, reference compound]	–	–	–	−18	0.82	2.9
